Data published in patent US20080255498A1, “Sensitizer Solutions, Systems, and Methods of Use” (priority 2005, published 2008).

Assay: Spectral absorption of light of sensitizer solutions (FIG. 2A, 2B)
Type: physicochemical
Source text: FIG. 2A is a graphic representation of spectral absorption of light for two embodiments of the sensitizer solution plotting absorbance versus wavelength in nm.
FIG. 2B is a graphic representation of the spectral absorption of light for four embodiments of the sensitizer solution plotting absorbance versus wavelength in nm.
FIGS. 2A and 2B illustrate that the sensitizer solution 12 has an electromagnetic energy absorption level dependent on the frequency (i.e., wavelength) of the electromagnetic energy. […] See U.S. Pat. No. 6,561,808 by Neuberger.

| Compound | absorption spectrum primary peak | absorption spectrum secondary peak | absorption spectrum tertiary peak |
| --- | --- | --- | --- |
| C=Cc1c(C)c2cc3nc(c(CC(=O)O)c4[nH]c(cc5nc(cc1[nH]2)C(C)=C5CC)c(C)c4C(=O)O)[C@@H](CCC(=O)O)[C@@H]3C [chlorin e6] | about 665 nm | about 575 nm | about 515 nm |
| bacteriochlorin a | about 765 nm | about 605 nm |  |
| silicon naphthalocyanine | about 773 nm | about 690 nm | about 735 nm |
